Measurements from PubChem BioAssay (NCI).
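Interpolation was linear, between the two tested concentrations surrounding the appropriate level; five concentrations were tested over 48 hours in 96-well plates. GI50 marks 50% less growth. The concentration for full growth arrest is given as TGI.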

Assays:
Test in all cases: NCI anticancer screen, dose series, 48 h
786-0 renal = tested on: 786-0 renal
A498 renal = tested on: A498 renal
A549 NSCLC = tested on: A549 NSCLC
ACHN renal = tested on: ACHN renal
CAKI-1 renal = tested on: CAKI-1 renal
CCRF-CEM leukemia = tested on: CCRF-CEM leukemia
COLO 205 colon = tested on: COLO 205 colon
DU-145 prostate = tested on: DU-145 prostate
EKVX NSCLC = tested on: EKVX NSCLC
HCC-2998 colon = tested on: HCC-2998 colon
HCT-116 colon = tested on: HCT-116 colon
HCT-15 colon = tested on: HCT-15 colon
HL-60(TB) leukemia = tested on: HL-60(TB) leukemia
HOP-62 NSCLC = tested on: HOP-62 NSCLC
HOP-92 NSCLC = tested on: HOP-92 NSCLC
HS 578T breast = tested on: HS 578T breast
HT29 colon = tested on: HT29 colon
IGROV1 ovarian = tested on: IGROV1 ovarian
K-562 leukemia = tested on: K-562 leukemia
KM12 colon = tested on: KM12 colon
LOX IMVI melanoma = tested on: LOX IMVI melanoma
M14 melanoma = tested on: M14 melanoma
MALME-3M melanoma = tested on: MALME-3M melanoma
MCF7 breast = tested on: MCF7 breast
MDA-MB-231 breast = tested on: MDA-MB-231 breast
MDA-MB-435 = tested on: MDA-MB-435
MOLT-4 leukemia = tested on: MOLT-4 leukemia
NCI-H226 lung = tested on: NCI-H226 lung
NCI-H23 lung = tested on: NCI-H23 lung
NCI-H460 lung = tested on: NCI-H460 lung
NCI-H522 lung = tested on: NCI-H522 lung
NCI/ADR-RES ovarian = tested on: NCI/ADR-RES ovarian
OVCAR-3 ovarian = tested on: OVCAR-3 ovarian
OVCAR-4 ovarian = tested on: OVCAR-4 ovarian
OVCAR-5 ovarian = tested on: OVCAR-5 ovarian
OVCAR-8 ovarian = tested on: OVCAR-8 ovarian
PC-3 prostate = tested on: PC-3 prostate
RPMI-8226 leukemia = tested on: RPMI-8226 leukemia
RXF 393 renal = tested on: RXF 393 renal
SF-268 CNS = tested on: SF-268 CNS
SF-295 CNS = tested on: SF-295 CNS
SF-539 CNS = tested on: SF-539 CNS
SK-MEL-2 melanoma = tested on: SK-MEL-2 melanoma
SK-MEL-28 melanoma = tested on: SK-MEL-28 melanoma
SK-MEL-5 melanoma = tested on: SK-MEL-5 melanoma
SK-OV-3 ovarian = tested on: SK-OV-3 ovarian
SN12C renal = tested on: SN12C renal
SNB-19 CNS = tested on: SNB-19 CNS
SNB-75 CNS = tested on: SNB-75 CNS
SR leukemia = tested on: SR leukemia
SW-620 colon = tested on: SW-620 colon
TK-10 renal = tested on: TK-10 renal
U251 CNS = tested on: U251 CNS
UACC-257 melanoma = tested on: UACC-257 melanoma
UACC-62 melanoma = tested on: UACC-62 melanoma
UO-31 renal = tested on: UO-31 renal
T-47D breast = tested on: T-47D breast

SMILES: N#C/C(=C1C=C/C(=N/O)C(Cl)=C/1)c1ccc(Cl)cc1
- GI50 (786-0 renal): 5.16 µM
- TGI (786-0 renal): 19.1 µM
- GI50 (A498 renal): 3.07 µM
- TGI (A498 renal): 20.4 µM
- GI50 (A549 NSCLC): 15.6 µM
- TGI (A549 NSCLC): 46.4 µM
- GI50 (ACHN renal): 4.47 µM
- TGI (ACHN renal): 18.4 µM
- GI50 (CAKI-1 renal): 3.63 µM
- TGI (CAKI-1 renal): 14.1 µM
- GI50 (CCRF-CEM leukemia): 1.96 µM
- TGI (CCRF-CEM leukemia): 6.93 µM
- GI50 (COLO 205 colon): 12.2 µM
- TGI (COLO 205 colon): 31.1 µM
- GI50 (DU-145 prostate): 1.98 µM
- TGI (DU-145 prostate): 4.1 µM
- GI50 (EKVX NSCLC): 10.4 µM
- TGI (EKVX NSCLC): 59.2 µM
- GI50 (HCC-2998 colon): 19.1 µM
- TGI (HCC-2998 colon): 38.4 µM
- GI50 (HCT-116 colon): 1.82 µM
- TGI (HCT-116 colon): 4.39 µM
- GI50 (HCT-15 colon): 6.67 µM
- TGI (HCT-15 colon): 77.7 µM
- GI50 (HL-60(TB) leukemia): 1.24 µM
- TGI (HL-60(TB) leukemia): 5 µM
- GI50 (HOP-62 NSCLC): 4.29 µM
- TGI (HOP-62 NSCLC): 19.1 µM
- GI50 (HOP-92 NSCLC): 7.92 µM
- TGI (HOP-92 NSCLC): 51.1 µM
- GI50 (HS 578T breast): 6.65 µM
- TGI (HS 578T breast): 44.3 µM
- GI50 (HT29 colon): 5.46 µM
- TGI (HT29 colon): 19.8 µM
- GI50 (IGROV1 ovarian): 2.66 µM
- TGI (IGROV1 ovarian): 7.89 µM
- GI50 (K-562 leukemia): 1.16 µM
- TGI (K-562 leukemia): 8.51 µM
- GI50 (KM12 colon): 0.721 µM
- TGI (KM12 colon): 10.1 µM
- GI50 (LOX IMVI melanoma): 2.62 µM
- TGI (LOX IMVI melanoma): 10.3 µM
- GI50 (M14 melanoma): 11.5 µM
- TGI (M14 melanoma): 31.6 µM
- GI50 (MALME-3M melanoma): 12.2 µM
- TGI (MALME-3M melanoma): 29.3 µM
- GI50 (MCF7 breast): 2.42 µM
- TGI (MCF7 breast): 8.89 µM
- GI50 (MDA-MB-231 breast): 7.24 µM
- TGI (MDA-MB-231 breast): 23.4 µM
- GI50 (MDA-MB-435): 1.96 µM
- TGI (MDA-MB-435): 8.45 µM
- GI50 (MOLT-4 leukemia): 2.35 µM
- TGI (MOLT-4 leukemia): 7.65 µM
- GI50 (NCI-H226 lung): 7.59 µM
- TGI (NCI-H226 lung): 27.3 µM
- GI50 (NCI-H23 lung): 25.9 µM
- TGI (NCI-H23 lung): > 100 µM
- GI50 (NCI-H460 lung): 3.8 µM
- TGI (NCI-H460 lung): 15.2 µM
- GI50 (NCI-H522 lung): 4.12 µM
- TGI (NCI-H522 lung): 15.7 µM
- GI50 (NCI/ADR-RES ovarian): 4.7 µM
- TGI (NCI/ADR-RES ovarian): 26.1 µM
- GI50 (OVCAR-3 ovarian): 3.97 µM
- TGI (OVCAR-3 ovarian): 13.7 µM
- GI50 (OVCAR-4 ovarian): 17 µM
- TGI (OVCAR-4 ovarian): 91.2 µM
- GI50 (OVCAR-5 ovarian): 12.7 µM
- TGI (OVCAR-5 ovarian): 43.4 µM
- GI50 (OVCAR-8 ovarian): 12.3 µM
- TGI (OVCAR-8 ovarian): 51.9 µM
- GI50 (PC-3 prostate): 4.99 µM
- TGI (PC-3 prostate): 71.1 µM
- GI50 (RPMI-8226 leukemia): 1.61 µM
- TGI (RPMI-8226 leukemia): 11.8 µM
- GI50 (RXF 393 renal): 13.5 µM
- TGI (RXF 393 renal): 36.1 µM
- GI50 (SF-268 CNS): 3.66 µM
- TGI (SF-268 CNS): 14.7 µM
- GI50 (SF-295 CNS): 4.08 µM
- TGI (SF-295 CNS): 14.4 µM
- GI50 (SF-539 CNS): 3.16 µM
- TGI (SF-539 CNS): 11.9 µM
- GI50 (SK-MEL-2 melanoma): 7.8 µM
- TGI (SK-MEL-2 melanoma): 24.8 µM
- GI50 (SK-MEL-28 melanoma): 30.1 µM
- TGI (SK-MEL-28 melanoma): > 100 µM
- GI50 (SK-MEL-5 melanoma): 16.5 µM
- TGI (SK-MEL-5 melanoma): 40.3 µM
- GI50 (SK-OV-3 ovarian): 15.7 µM
- TGI (SK-OV-3 ovarian): 41.6 µM
- GI50 (SN12C renal): 2.99 µM
- TGI (SN12C renal): 8.02 µM
- GI50 (SNB-19 CNS): 18.4 µM
- TGI (SNB-19 CNS): > 100 µM
- GI50 (SNB-75 CNS): 3.78 µM
- TGI (SNB-75 CNS): 18.4 µM
- GI50 (SR leukemia): 1.36 µM
- TGI (SR leukemia): 4.05 µM
- GI50 (SW-620 colon): 3.79 µM
- TGI (SW-620 colon): 15.1 µM
- GI50 (TK-10 renal): 5.25 µM
- TGI (TK-10 renal): 20.2 µM
- GI50 (U251 CNS): 5.7 µM
- TGI (U251 CNS): 20 µM
- GI50 (UACC-257 melanoma): 21.2 µM
- TGI (UACC-257 melanoma): > 100 µM
- GI50 (UACC-62 melanoma): 4.01 µM
- TGI (UACC-62 melanoma): 18 µM
- GI50 (UO-31 renal): 3.33 µM
- TGI (UO-31 renal): 13 µM

SMILES: O=C1CSC2=NC3=C(CSC/C3=C\c3ccc(Cl)cc3)C(c3ccc(Cl)cc3)N12 (stereo not given)
- TGI (A549 NSCLC): > 100 µM
- TGI (ACHN renal): > 100 µM
- TGI (CAKI-1 renal): > 100 µM
- TGI (CCRF-CEM leukemia): > 100 µM
- TGI (COLO 205 colon): > 100 µM
- TGI (DU-145 prostate): > 100 µM
- TGI (EKVX NSCLC): > 100 µM
- TGI (HCC-2998 colon): 89.2 µM
- TGI (HCT-116 colon): 29 µM
- TGI (HCT-15 colon): 80.2 µM
- TGI (HL-60(TB) leukemia): > 100 µM
- TGI (HOP-92 NSCLC): 39.9 µM
- TGI (HT29 colon): > 100 µM
- TGI (IGROV1 ovarian): > 100 µM
- TGI (K-562 leukemia): > 100 µM
- TGI (KM12 colon): 79.1 µM
- TGI (LOX IMVI melanoma): 28.7 µM
- TGI (M14 melanoma): > 100 µM
- TGI (MALME-3M melanoma): > 100 µM
- TGI (MCF7 breast): 87.2 µM
- TGI (MDA-MB-231 breast): > 100 µM
- TGI (MDA-MB-435): 66 µM
- TGI (MOLT-4 leukemia): 43.4 µM
- TGI (NCI-H23 lung): > 100 µM
- TGI (NCI-H460 lung): > 100 µM
- TGI (NCI-H522 lung): 36.3 µM
- TGI (NCI/ADR-RES ovarian): > 100 µM
- TGI (OVCAR-3 ovarian): 67 µM
- TGI (OVCAR-4 ovarian): 67.1 µM
- TGI (OVCAR-5 ovarian): > 100 µM
- TGI (OVCAR-8 ovarian): 43.3 µM
- TGI (PC-3 prostate): > 100 µM
- TGI (RPMI-8226 leukemia): > 100 µM
- TGI (SF-268 CNS): > 100 µM
- TGI (SF-295 CNS): 47.6 µM
- TGI (SK-MEL-2 melanoma): 52.3 µM
- TGI (SK-MEL-28 melanoma): 81.9 µM
- TGI (SK-MEL-5 melanoma): 29.3 µM
- TGI (SK-OV-3 ovarian): > 100 µM
- TGI (SN12C renal): 39.2 µM
- TGI (SNB-19 CNS): > 100 µM
- TGI (SR leukemia): 56.3 µM
- TGI (SW-620 colon): 62.3 µM
- TGI (T-47D breast): > 100 µM
- TGI (TK-10 renal): > 100 µM
- TGI (UACC-257 melanoma): 85.9 µM
- TGI (UACC-62 melanoma): > 100 µM
- TGI (UO-31 renal): 29.3 µM
